Reference: patent publication US8048873B2, “Synergistic pharmaceutical combination for the prevention or treatment of diabetes” (N-Gene Research Laboratories, Inc., priority 2001, dated 2011)

Test system: New Zealand white rabbits
Assay: Hyperinsulinaemic euglycaemic glucose clamp studies (insulin sensitivity by glucose infusion rate at steady state)
Format: in vivo, rabbit
Conditions: measured on 6th day
Protocol: Adult male New Zealand white rabbits weighing 3-3.2 kg, housed in an animal room (12-hour light/dark periods a day, temperature of 22-25° C., relative humidity of 50-70%) with one animal per pen, fed commercial laboratory chow and tap water ad libitum, were used throughout. The animals underwent surgery after a two-week adaptation period.
Surgery was performed under aseptic conditions. The rabbits were anaesthetized with an intravenous bolus of 10 mg/kg diazepam (Sigma, St. Louis, Mo., USA) and 5 mg/kg ketamine (EGIS Pharmaceuticals Ltd., Budapest, Hungary). […] Polyethylene catheters were inserted into two major branches of the jugular vein and the left carotid artery. The catheters were exteriorised through the back of the neck. These lines were kept patent by filling with sodium heparin solution (100 IU/ml).
Hyperinsulinaemic Euglycaemic Glucose Clamp Studies
Blood samples (0.3 ml) were taken from the arterial cannula for blood glucose concentration at 10 min intervals. […] When blood glucose had stabilized for at least 30 min, we defined this condition as steady state. In the steady state, additional blood samples (0.5 ml) were taken for plasma insulin determination at 10-min intervals. The glucose infusion rate (mg/kg/min) during steady state was used to characterize insulin sensitivity [DeFronzo R. A. et al., Am. […] The test compound(s) was/were administered to healthy and hypercholesterolaemic animals, respectively, perorally, in a single dose, daily, for five days, and the glucose infusion rates determined on the 6th day were averaged within each test group consisting of 6 animals. One group of the healthy and one of the hypercholesterolaemic animals was used as the control.
It is favourable that a higher amount of glucose should be needed at the given constant blood glucose level which indicates the enhanced effect of insulin.

Row | SMILES | Insulin sensitivity as characterized by the glucose infusion rate during steady state (Table 2, HC (hypercholesterolaemic) animals, troglitazone 75 mg/kg daily dose p.o. for five days) | Insulin sensitivity as characterized by the glucose infusion rate during steady state (Table 2, normal (healthy) animals, troglitazone 75 mg/kg daily dose p.o. for five days) | Insulin sensitivity as characterized by the glucose infusion rate during steady state (Table 1, HC (hypercholesterolaemic) animals, metformin 100 mg/kg daily dose p.o. for five days) | Insulin sensitivity as characterized by the glucose infusion rate during steady state (Table 1, normal (healthy) animals, metformin 100 mg/kg daily dose p.o. for five days)
1 | Cc1c(C)c2c(c(C)c1O)CCC(C)(COc1ccc(CC3SC(=O)NC3=O)cc1)O2 (racemic) [Troglitazone, (±)-5-[[4-[(3,4-dihydro-6-hydroxy-2,5,7,8-tetramethyl-2H-1-benzopyran-2-yl)methoxy]-phenyl]methyl]-2,4-thiazolidinedione] | 14.1 ± 1.33 mg/kg/min | 14.3 ± 0.08 mg/kg/min | – | –
2 | CN(C)C(=N)N=C(N)N [Metformin, N,N-dimethylimidocarbonimidic diamide] | – | – | 11.7 ± 0.87 mg/kg/min | 15.8 ± 0.83 mg/kg/min
